Data published in patent US20260137697A1, “THIAZOLO[5,4-D]PYRIMIDINE COMPOUNDS, COMPOSITIONS COMPRISING THEM AND USES THEREOF” (University de Montreal, priority 2022, published 2026).

Assays:
BRAF = target: T1, BRAF (Homo sapiens, UniProt P15056); experiment: BRAF kinase activity assay (ADP-Glo); format: biochemical; conditions: Table 3; 10 μM ATP, kinase-dead MEK1 substrate
T1 construct: GST; purchased Millipore Sigma B4062-10UG
Outline: (§1)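 GST-tagged kinase (0.375 nM) with 75 nM kinase-dead MEK1 and 10 μM ATP in HEPES pH 7.5 buffer, 2 h at 30° C, nine concentrations 100–0.01 nM, 0.05% DMSO. ADP-Glo luminescence; % inhibition vs DMSO and substrate-only blanks, IC50 by four-parameter fit.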

pERK, HCT116 cells = experiment: Phospho-ERK inhibition, AlphaLISA p-ERK 1/2, HCT-116; format: cell-based, human; conditions: Table 3; for IC50: HCT116 cells (KRAS G13D), 1 h treatment; for HCT116 pERK (Ymin %): lowest % inhibition value of the pERK IC50 curve, above −20% = no paradoxical induction
Outline: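 Cells in RPMI-1640 with 5% FBS plated overnight, then treated 1 h with ten-point dilutions (10 μM to 0.33 nM, 0.5% DMSO). Lysate p-ERK1/2 (Thr202/Tyr204) read by AlphaLISA SureFire Ultra; % inhibition normalised to DMSO and 1 μM trametinib background, IC50 by four-parameter fit.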

CRAF = target: T2, CRAF (Homo sapiens, UniProt P04049); experiment: CRAF kinase activity assay (ADP-Glo); format: biochemical; conditions: Table 3; 10 μM ATP, kinase-dead MEK1 substrate
T2 construct: fused on or other part: GST tag (N-terminal according to the vendor's product)
Outline: as §1

T2 sequence (P04049 whole entry Y340E/Y341E, form open, the tested form may be a part): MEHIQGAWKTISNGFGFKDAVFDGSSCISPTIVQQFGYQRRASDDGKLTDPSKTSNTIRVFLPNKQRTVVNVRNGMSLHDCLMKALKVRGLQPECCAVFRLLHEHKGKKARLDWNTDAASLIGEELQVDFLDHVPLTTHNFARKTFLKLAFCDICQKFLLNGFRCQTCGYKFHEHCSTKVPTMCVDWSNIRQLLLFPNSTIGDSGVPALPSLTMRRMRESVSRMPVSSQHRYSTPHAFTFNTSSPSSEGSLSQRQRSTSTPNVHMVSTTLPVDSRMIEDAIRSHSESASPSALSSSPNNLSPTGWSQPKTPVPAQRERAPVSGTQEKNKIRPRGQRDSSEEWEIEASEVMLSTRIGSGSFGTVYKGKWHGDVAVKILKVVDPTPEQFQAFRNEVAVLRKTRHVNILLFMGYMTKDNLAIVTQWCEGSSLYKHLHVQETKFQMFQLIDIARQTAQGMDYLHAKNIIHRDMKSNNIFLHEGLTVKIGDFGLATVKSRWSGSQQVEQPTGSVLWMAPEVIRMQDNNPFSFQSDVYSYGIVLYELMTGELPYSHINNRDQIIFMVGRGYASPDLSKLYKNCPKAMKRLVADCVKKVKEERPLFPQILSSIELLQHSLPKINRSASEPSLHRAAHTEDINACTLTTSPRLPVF
T1 sequence (P15056 whole entry): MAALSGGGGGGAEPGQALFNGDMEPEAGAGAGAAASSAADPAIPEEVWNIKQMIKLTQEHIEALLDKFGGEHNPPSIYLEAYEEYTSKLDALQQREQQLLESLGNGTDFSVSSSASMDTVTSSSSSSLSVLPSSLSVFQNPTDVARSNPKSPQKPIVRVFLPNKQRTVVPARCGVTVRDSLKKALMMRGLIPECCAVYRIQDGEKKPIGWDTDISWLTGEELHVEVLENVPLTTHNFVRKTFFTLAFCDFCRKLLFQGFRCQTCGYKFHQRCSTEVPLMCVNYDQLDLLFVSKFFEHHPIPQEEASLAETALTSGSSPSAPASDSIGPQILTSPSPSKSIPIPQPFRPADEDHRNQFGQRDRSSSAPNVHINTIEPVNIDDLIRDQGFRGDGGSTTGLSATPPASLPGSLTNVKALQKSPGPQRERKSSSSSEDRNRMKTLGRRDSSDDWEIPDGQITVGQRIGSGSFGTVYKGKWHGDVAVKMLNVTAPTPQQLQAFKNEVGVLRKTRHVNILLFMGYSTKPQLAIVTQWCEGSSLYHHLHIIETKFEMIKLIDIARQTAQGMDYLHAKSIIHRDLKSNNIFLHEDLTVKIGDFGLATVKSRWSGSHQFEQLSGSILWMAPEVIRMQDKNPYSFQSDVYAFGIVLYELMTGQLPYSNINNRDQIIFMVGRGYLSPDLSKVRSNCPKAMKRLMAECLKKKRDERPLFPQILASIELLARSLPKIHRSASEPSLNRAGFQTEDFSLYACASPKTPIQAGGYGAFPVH

IC50 (BRAF) [nM] | IC50 (pERK, HCT116 cells) [nM] | IC50 (CRAF) [nM] | IC50 (pERK, HCT116 cells; Homo sapiens, HCT-116) [nM] | SMILES | HCT116 pERK (Ymin %) (pERK, HCT116 cells) [%]
1 to 10 | 500 to 1000 | 10 to 50 | – | CN(CCN1CCOCC1)S(=O)(=O)c1cn(-c2nc3c(Nc4c(F)ccc(NS(=O)(=O)c5cccc(Cl)c5Cl)c4F)ncnc3s2)c2ccccc12 [Example 83] | −10
1 to 10 | < 500 | < 10 | – | O=C(c1cn(-c2nc3c(Nc4c(F)ccc(NS(=O)(=O)c5cccc(Cl)c5Cl)c4F)ncnc3s2)c2ccccc12)N1CC2CC1CO2 (stereo not drawn) [Example 84] | 18
1 to 10 | < 500 | < 10 | – | CC1(O)CCN(C(=O)c2cn(-c3nc4c(Nc5c(F)ccc(NS(=O)(=O)c6cccc(Cl)c6Cl)c5F)ncnc4s3)c3ccccc23)CC1 [Example 85] | 8
1 to 10 | < 500 | < 10 | – | O=C(c1cn(-c2nc3c(Nc4c(F)ccc(NS(=O)(=O)c5cccc(Cl)c5Cl)c4F)ncnc3s2)c2ccccc12)N1C2CCC1CC(O)C2 (stereo not drawn) [Example 86] | 4
1 to 10 | 500 to 1000 | < 10 | – | CC(C)(O)C1CN(C(=O)c2cn(-c3nc4c(Nc5c(F)ccc(NS(=O)(=O)c6cccc(Cl)c6Cl)c5F)ncnc4s3)c3ccccc23)C1 [Example 87] | −8
1 to 10 | 1000 to 10000 | > 50 | – | CC(=O)c1cn(-c2nc3c(Nc4c(F)ccc(NS(=O)(=O)c5cccc(Cl)c5Cl)c4F)ncnc3s2)c2ccccc12 [Example 88] | −8
1 to 10 | < 500 | > 50 | – | O=C(c1cn(-c2nc3c(Nc4c(F)ccc(NS(=O)(=O)c5cccc(Cl)c5Cl)c4F)ncnc3s2)c2ccccc12)N1CCC2CCCCC2(O)C1 (stereo not drawn) [Example 89] | −16
1 to 10 | < 500 | < 10 | – | CC(C)(O)[C@@H]1CCN(C(=O)c2cn(-c3nc4c(Nc5c(F)ccc(NS(=O)(=O)c6cccc(Cl)c6Cl)c5F)ncnc4s3)c3ccccc23)C1 [Example 90] | −6
> 10 | – | > 50 | 1000 to 10000 | CCC(=O)c1cn(-c2nc3c(Nc4c(F)ccc(NS(=O)(=O)c5cccc(Cl)c5Cl)c4F)ncnc3s2)c2ccccc12 [Example 91] | –
> 10 | – | > 50 | 1000 to 10000 | CC(C)C(=O)c1cn(-c2nc3c(Nc4c(F)ccc(NS(=O)(=O)c5cccc(Cl)c5Cl)c4F)ncnc3s2)c2ccccc12 [Example 92] | –
< 1 | 500 to 1000 | < 10 | – | O=C(c1cn(-c2nc3c(Nc4c(F)ccc(NS(=O)(=O)c5cccc(Cl)c5Cl)c4F)ncnc3s2)c2cccc(F)c12)N1C2CCC1COC2 [Example 93] | 3
1 to 10 | < 500 | < 10 | – | CC1(O)CN(C(=O)c2cn(-c3nc4c(Nc5c(F)ccc(NS(=O)(=O)c6cccc(Cl)c6Cl)c5F)ncnc4s3)c3ccccc23)C1 [Example 94] | −10
1 to 10 | < 500 | < 10 | – | CCC1(O)CN(C(=O)c2cn(-c3nc4c(Nc5c(F)ccc(NS(=O)(=O)c6cccc(Cl)c6Cl)c5F)ncnc4s3)c3ccccc23)C1 [Example 95] | −6
> 10 | 500 to 1000 | 10 to 50 | – | O=C(c1cn(-c2nc3c(Nc4c(F)ccc(NS(=O)(=O)c5cccc(Cl)c5Cl)c4F)ncnc3s2)c2ccccc12)N1CC(O)(C(F)(F)F)C1 [Example 96] | −1
> 10 | < 500 | 10 to 50 | – | O=C(c1cn(-c2nc3c(Nc4c(F)ccc(NS(=O)(=O)c5cccc(Cl)c5Cl)c4F)ncnc3s2)c2ccccc12)N1CCC(O)(C(F)(F)F)CC1 [Example 97] | −10
1 to 10 | – | < 10 | < 500 | COc1cccc2c1ncn2-c1nc2c(Nc3c(F)ccc(NS(=O)(=O)c4cccc(Cl)c4Cl)c3F)ncnc2s1 [Example 99] | –
1 to 10 | – | < 10 | < 500 | O=S(=O)(Nc1ccc(F)c(Nc2ncnc3sc(-n4cnc5c(F)cc(OCCO)cc54)nc23)c1F)c1cccc(Cl)c1Cl [Example 100] | –
> 10 | < 500 | 10 to 50 | – | CC(C)(O)C1CCCN1C(=O)c1cn(-c2nc3c(Nc4c(F)ccc(NS(=O)(=O)c5cccc(Cl)c5Cl)c4F)ncnc3s2)c2ccc(F)cc12 (stereo not drawn) [Example 101] | 0

The next lines start with the compound.

SMILES | IC50 (BRAF) [nM] | IC50 (pERK, HCT116 cells) [nM] | IC50 (CRAF) [nM] | IC50 (pERK, HCT116 cells; Homo sapiens, HCT-116) [nM] | HCT116 pERK (Ymin %) (pERK, HCT116 cells) [%]
O=S(=O)(CC1CCOCC1)c1cn(-c2nc3c(Nc4c(F)ccc(NS(=O)(=O)c5cccc(Cl)c5Cl)c4F)ncnc3s2)c2ccccc12 [Example 65] | 1 to 10 | 500 to 1000 | 10 to 50 | – | −3
CN(C1CCOC1)S(=O)(=O)c1cn(-c2nc3c(Nc4c(F)ccc(NS(=O)(=O)c5cccc(Cl)c5Cl)c4F)ncnc3s2)c2ccccc12 (stereo not drawn) [Example 66] | 1 to 10 | < 500 | 10 to 50 | – | −13
O=S(=O)(Nc1ccc(F)c(Nc2ncnc3sc(-n4cc(S(=O)(=O)N5C6CCC5COC6)c5ccccc54)nc23)c1F)c1cccc(Cl)c1Cl [Example 67] | 1 to 10 | < 500 | > 50 | – | 0
CN1CC2CCC(C1)N2S(=O)(=O)c1cn(-c2nc3c(Nc4c(F)ccc(NS(=O)(=O)c5cccc(Cl)c5Cl)c4F)ncnc3s2)c2ccccc12 [Example 68] | 1 to 10 | < 500 | 10 to 50 | – | −6
CC1COCCN1S(=O)(=O)c1cn(-c2nc3c(Nc4c(F)ccc(NS(=O)(=O)c5cccc(Cl)c5Cl)c4F)ncnc3s2)c2ccccc12 (stereo not drawn) [Example 69] | > 10 | 500 to 1000 | 10 to 50 | – | −7
CCN(CCOC)S(=O)(=O)c1cn(-c2nc3c(Nc4c(F)ccc(NS(=O)(=O)c5cccc(Cl)c5Cl)c4F)ncnc3s2)c2ccccc12 [Example 70] | > 10 | – | 10 to 50 | 500 to 1000 | –
O=S(=O)(Nc1ccc(F)c(Nc2ncnc3sc(-n4cnc5c(F)cc(F)cc54)nc23)c1F)c1cccc(Cl)c1Cl [Example 71] | 1 to 10 | – | < 10 | < 500 | –
CS(=O)(=O)c1cn(-c2nc3c(Nc4c(F)ccc(NS(=O)(=O)c5cccc(Cl)c5Cl)c4F)ncnc3s2)c2ccccc12 [Example 72] | 1 to 10 | – | < 10 | 500 to 1000 | –
CC(C)S(=O)(=O)c1cn(-c2nc3c(Nc4c(F)ccc(NS(=O)(=O)c5cccc(Cl)c5Cl)c4F)ncnc3s2)c2ccccc12 [Example 73] | 1 to 10 | < 500 | > 50 | – | −12
O=S(=O)(Nc1ccc(F)c(Nc2ncnc3sc(-n4cc(S(=O)(=O)N5CC(CO)C5)c5ccccc54)nc23)c1F)c1cccc(Cl)c1Cl [Example 74] | 1 to 10 | 1000 to 10000 | < 10 | – | −9
CN(CC(F)F)S(=O)(=O)c1cn(-c2nc3c(Nc4c(F)ccc(NS(=O)(=O)c5cccc(Cl)c5Cl)c4F)ncnc3s2)c2ccccc12 [Example 75] | > 10 | 1000 to 10000 | 10 to 50 | – | −5
O=S(=O)(Nc1ccc(F)c(Nc2ncnc3sc(-n4cc(S(=O)(=O)N5CC(C(F)F)C5)c5ccccc54)nc23)c1F)c1cccc(Cl)c1Cl [Example 76] | > 10 | 1000 to 10000 | 10 to 50 | – | −10
CC(C)(O)[C@@H]1CCCN1C(=O)c1cn(-c2nc3c(Nc4c(F)ccc(NS(=O)(=O)c5cccc(Cl)c5Cl)c4F)ncnc3s2)c2ccccc12 [Example 77] | 1 to 10 | 500 to 1000 | 10 to 50 | – | −5
C[C@]1(CO)CCCN1C(=O)c1cn(-c2nc3c(Nc4c(F)ccc(NS(=O)(=O)c5cccc(Cl)c5Cl)c4F)ncnc3s2)c2ccccc12 [Example 78] | 1 to 10 | 500 to 1000 | 10 to 50 | – | −14
COCCOc1ccc2c(ncn2-c2nc3c(Nc4c(F)ccc(NS(=O)(=O)c5cccc(Cl)c5Cl)c4F)ncnc3s2)c1F [Example 79] | 1 to 10 | – | < 10 | 500 to 1000 | –
O=S(=O)(Nc1ccc(F)c(Nc2ncnc3sc(-n4cnc5c(F)c(OCCO)ccc54)nc23)c1F)c1cccc(Cl)c1Cl [Example 80] | 1 to 10 | – | < 10 | 1000 to 10000 | –
O=C(c1cn(-c2nc3c(Nc4c(F)ccc(NS(=O)(=O)c5cccc(Cl)c5Cl)c4F)ncnc3s2)c2ccc(Cl)cc12)N1C2CCC1COC2 [Example 81] | 1 to 10 | 500 to 1000 | 10 to 50 | – | −8
C[C@@H]1CN(S(=O)(=O)c2cn(-c3nc4c(Nc5c(F)ccc(NS(=O)(=O)c6cccc(Cl)c6Cl)c5F)ncnc4s3)c3ccccc23)C[C@H](C)N1 [Example 82] | 1 to 10 | 500 to 1000 | 10 to 50 | – | −13
O=C(c1cn(-c2nc3c(Nc4c(F)ccc(NS(=O)(=O)c5cccc(Cl)c5Cl)c4F)ncnc3s2)c2ccccc12)N1C2CCC1CN(CCO)C2 [Example 98] | 1 to 10 | – | < 10 | < 500 | –
